In the NIST ThermoML archive (doi:10.1016/j.tca.2016.11.008):
± gives the expanded uncertainty stated by the source.

Assay: xn = mol fraction of the nth substance listed
Conditions: 101.3 kPa, Liquid, Vibrating tube method

Structure (SMILES): C[N+](C)(C)CCO.[Cl-] [choline chloride] + O=C[C@H](O)[C@@H](O)[C@H](O)[C@H](O)CO
- mass density (303.15 K, x1 = 0.667): 1239.7 ± 3.4 kg/m3
- mass density (313.15 K, x1 = 0.667): 1234.6 ± 3.3 kg/m3
- mass density (323.15 K, x1 = 0.667): 1229.4 ± 3.3 kg/m3
- mass density (333.15 K, x1 = 0.667): 1224.3 ± 3.3 kg/m3
- mass density (343.15 K, x1 = 0.667): 1219.2 ± 3.3 kg/m3
- mass density (353.15 K, x1 = 0.667): 1214 ± 3.3 kg/m3

Structure (SMILES): OCCOCCOCCO [triethylene glycol] + C[N+](C)(C)CCO.[Cl-]
- mass density (303.15 K, x2 = 0.333): 1125.4 ± 3.1 kg/m3
- mass density (313.15 K, x2 = 0.333): 1118.9 ± 3.1 kg/m3
- mass density (323.15 K, x2 = 0.333): 1112.5 ± 3 kg/m3
- mass density (333.15 K, x2 = 0.333): 1106.2 ± 3 kg/m3
- mass density (343.15 K, x2 = 0.333): 1099.8 ± 3 kg/m3
- mass density (353.15 K, x2 = 0.333): 1093.5 ± 3 kg/m3
